Values quoted from earlier work as cited in publication PMC7191262 (Molecular pharmaceutics, 2020).
Like-named read-outs stand apart in the source and are kept apart here. *1 amine or outer side, *2 acyl side, *3 side chain or, on linkers, in order; H or OH if unused. Where a SMILES comes first, the peptide text is derived from it. Bridges are numbered along the chain shown (N, C = ends). [ ]: non-standard residue; d: D form. The star is where a group is joined. X1 = CN(C)c1ccc2c(c1)Oc1cc(N(C)C)ccc1C2=C1C=CC(=NC(=S)NC[C@](C)(O)C[C@H](N[*:1])C(=O)[*:2])C=C1C(=O)O; Trp(2-yl) = O=C([C@H](Cc1c([*:3])[nH]c2ccccc12)N[*:1])[*:2]; Dolaproine = CO[C@@H]([C@@H]1CCCN1)[C@@H](C)C(=O)O; Dil = CC[C@H](C)[C@H](NC)[C@@H](CC(=O)O)OC; cisHyp = O=C(O)[C@@H]1C[C@H](O)CN1; X2 = C[C@@H](N*)[C@@H](O)c1ccccc1; NMeV = CN[C@H](C(=O)O)C(C)C

Tests used:
[1] = cargo previously delivered by pHLIP
[2] = pHLIP with no cargo; ref [33], [36], [39]
[3] = ref Moshnikova et al., 2013 (Ref [17])

For Amanitin [Amanitin (Lc-SMPT linker)], the LogP/LogD [1, 3] is given as 0.2.

For `C[C@@H]1NC(=O)[C@H](C[C@@](C)(O)CNC(=S)N=C2C=CC(=C3c4ccc(N(C)C)cc4Oc4cc(N(C)C)ccc43)C(C(=O)O)=C2)NC(=O)[C@@H]2Cc3c([nH]c4ccccc34)SC[C@H](NC(=O)[C@@H]([C@H](C)O)NC1=O)C(=O)N1C[C@@H](O)C[C@H]1C(=O)N[C@@H](C)C(=O)N2` [Phalloidin-TRITC] (cyclo(A[dT]C[cisHyp]A[Trp(2-yl)][X1]); thioether 3-6), the LogP/LogD ([1]; ref Reshetnyak et al., 2006 (Ref [24])) is listed as −0.05.

For Amanitin [Amanitin (SPDP linker)], the LogP/LogD [1, 3] is listed as −0.2.

For `CC[C@H](C)[C@@H]([C@@H](CC(=O)N1CCC[C@H]1[C@H](OC)[C@@H](C)C(=O)N[C@H](C)[C@@H](O)c1ccccc1)OC)N(C)C(=O)[C@@H](NC(=O)[C@@H](NC)C(C)C)C(C)C` [Monomethyl Auristatin E] (H-[NMeV]V[Dil][Dolaproine]-X2), the LogP/LogD ([1]; ref Burns et al., 2015 (Ref [21])) is given as 2.2.

For `CC[C@H](C)[C@@H]([C@@H](CC(=O)N1CCC[C@H]1[C@H](OC)[C@@H](C)C(=O)N[C@@H](Cc1ccccc1)C(=O)O)OC)N(C)C(=O)[C@@H](NC(=O)[C@@H](NC)C(C)C)C(C)C` [Monomethyl Auristatin F] (H-[NMeV]V[Dil][Dolaproine]F-OH), the LogP/LogD ([1]; ref Burns et al., 2017 (Ref [20])) is listed as 0.7.

In the case of “GGEQNPIYWARYADWLFTTPLLLLDLALLVDADEGTC(NPys)G [pHLIP]”, the “characteristic time for insertion” value [2] is listed as ~ 40 seconds.
